The values below come from patent US20130109682A1, “CYCLIC ETHER COMPOUNDS USEFUL AS KINASE INHIBITORS” (NOVARTIS AG, priority 2010, published 2013).

The target in one assay is GSK3β (Homo sapiens, UniProt P49841). The assay can be described thus: GSK3β ATP depletion assay. The format is biochemical. As to conditions: ATP depletion assay; read-out: GSK3b IC50. The procedure, abridged:
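Human GSK3β (5 nM) preincubated 15 min with 10 μM biotinylated phospho-CREB peptide in pH 7.5 Tris buffer (15 mM MgCl2, 1 mM DTT, 0.1% BSA, 2.5% DMSO). Reaction started with 2 μM ATP and run to about 50% ATP depletion. Remaining ATP measured by KinaseGlo luminescence.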

A further assay concerns the target PIM2 (Homo sapiens, UniProt Q9P1W9). The assay can be described thus: Pim 2 AlphaScreen assay (high ATP). As to conditions: read-out: Pim2 IC50. The format is biochemical. The protocol: Pim1, Pim2, Pim3 AlphaScreen Assay Pim 1, Pim 2 & Pim 3 AlphaScreen assays using high ATP (11-125×ATP Km) were used to determine the biochemical activity of the inhibitors. The activity of Pim 1, Pim 2, & Pim 3 is measured using a homogeneous bead based system quantifying the amount of phosphorylated peptide substrate resulting from kinase-catalyzed phosphoryl transfer to a peptide substrate. Compounds to be tested are dissolved in 100% DMSO and directly distributed to a white 384-well plate at […] per well. To start the reaction, 5 μl of 100 nM Bad peptide (Biotin-AGAGRSRHSSYPAGT —OH) and ATP (concentrations described below) in assay buffer (50 mM Hepes, pH=7.5, 5 mM MgCl2, 0.05% BSA, 0.01% Tween-20, 1 mM DTT) is added to each well. This is followed by the addition of 5 μl/well of Pim 1, Pim 2 or Pim 3 kinase in assay buffer (concentrations described below). Final assay concentrations (described below) are in 2.5% DMSO. The reactions are performed for ˜2 hours, then stopped by the addition of 10 μl of 0.75 μg/ml anti-phospho Ser/Thr antibody (Cell Signaling), 10 μg/ml Protein A AlphaScreen beads (Perkin Elmer), and 10 μg/ml streptavidin coated AlphaScreen beads in stop/detection buffer (50 mM EDTA, 95 mM Tris, pH=7.5, 0.01% Tween-20). The stopped reactions are incubated overnight in the dark. The phosphorylated peptide is detected via an […] initiated chemiluminescence/fluorescence cascade using the Envision plate reader (Perkin Elmer).
IC50, the half maximal inhibitory concentration, represents the concentration of a test compound that is required for 50% inhibition of its target in vitro under the described assay conditions.
On the technique in general: In Alpha technology, singlet oxygen from a donor bead excites a nearby acceptor bead.

PIM2, sequence (Q9P1W9 whole entry): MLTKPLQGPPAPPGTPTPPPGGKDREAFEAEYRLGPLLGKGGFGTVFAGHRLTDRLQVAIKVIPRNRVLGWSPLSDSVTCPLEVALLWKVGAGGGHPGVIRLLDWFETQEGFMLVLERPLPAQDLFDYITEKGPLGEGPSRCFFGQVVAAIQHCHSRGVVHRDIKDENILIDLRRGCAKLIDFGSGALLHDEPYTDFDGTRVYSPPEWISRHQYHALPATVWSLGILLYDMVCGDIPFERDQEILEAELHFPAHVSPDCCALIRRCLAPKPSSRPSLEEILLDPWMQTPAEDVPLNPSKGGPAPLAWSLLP
GSK3β, sequence (P49841 whole entry, species assumed): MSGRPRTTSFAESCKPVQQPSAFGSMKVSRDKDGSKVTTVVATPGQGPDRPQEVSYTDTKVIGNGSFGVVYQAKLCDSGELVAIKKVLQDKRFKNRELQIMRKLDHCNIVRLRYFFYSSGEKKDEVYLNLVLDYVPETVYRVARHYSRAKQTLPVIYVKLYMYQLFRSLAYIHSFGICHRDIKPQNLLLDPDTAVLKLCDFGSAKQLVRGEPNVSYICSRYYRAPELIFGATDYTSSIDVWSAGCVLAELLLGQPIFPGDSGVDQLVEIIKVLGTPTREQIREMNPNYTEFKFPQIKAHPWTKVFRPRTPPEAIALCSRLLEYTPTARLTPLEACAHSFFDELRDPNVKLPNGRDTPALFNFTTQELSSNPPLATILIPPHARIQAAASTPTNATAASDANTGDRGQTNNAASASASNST

For the compound `CC[C@H]1OC(c2ccncc2NC(=O)c2ccc(F)c(-c3c(F)cc(S(C)(=O)=O)cc3F)n2)C[C@@H](N)[C@]1(C)O` (stereo in doubt) [Example 283, N-(4-((2S,4R,5S,6R)-4-amino-6-ethyl-5-hydroxy-5-methyltetrahydro-2H-pyran-2-yl)pyridin-3-yl)-6-(2,6-difluoro-4-(methylsulfonyl)phenyl)-5-fluoropicolinamide], the values for the IC50 on GSK3β and at PIM2 were 12.5 µM and 87.4 nM, respectively.

Take `CC[C@]1(O)[C@H](N)CC(c2ccncc2NC(=O)c2ccc(F)c(-c3c(F)cc(S(C)(=O)=O)cc3F)n2)O[C@@H]1C` (stereo in doubt) [Example 284, N-(4-((2S,4R,5S,6R)-4-amino-5-ethyl-5-hydroxy-6-methyltetrahydro-2H-pyran-2-yl)pyridin-3-yl)-6-(2,6-difluoro-4-(methylsulfonyl)phenyl)-5-fluoropicolinamide]: the IC50 (usually the concentration needed to halve the response being measured) turned out to be 0.619 µM at GSK3β and 59.1 nM on PIM2.

Turning to `CC(=O)Nc1ccc(F)c(-c2nc(C(=O)Nc3cnccc3C3C[C@@H](N)[C@H](O)[C@@H](C(C)C)O3)ccc2F)c1F` (stereo in doubt) [Example 307, 6-(3-acetamido-2,6-difluorophenyl)-N-(4-((2S,4R,5S,6R)-4-amino-5-hydroxy-6-isopropyltetrahydro-2H-pyran-2-yl)pyridin-3-yl)-5-fluoropicolinamide], the IC50 was found to be 3.42 µM on GSK3β and 50.1 nM at PIM2.

On to `CC(C)(C)[C@H]1O[C@@H](c2ccncc2NC(=O)c2ccc(F)c(-c3c(F)cccc3F)n2)C[C@H](N)[C@@H]1O` [Example 278, N-(4-((2R,4S,5S,6R)-4-amino-6-(tert-butyl)-5-hydroxytetrahydro-2H-pyran-2-yl)pyridin-3-yl)-6-(2,6-difluorophenyl)-5-fluoropicolinamide], for which the results for the IC50 at GSK3β and at PIM2 were 9.7 µM and 70.7 nM, respectively.

Take `CC(C)(C)[C@@H]1O[C@H](c2ccncc2NC(=O)c2ccc(F)c(-c3c(F)cccc3F)n2)C[C@@H](N)[C@H]1O` [Example 279, N-(4-((2S,4R,5R,6S)-4-amino-6-(tert-butyl)-5-hydroxytetrahydro-2H-pyran-2-yl)pyridin-3-yl)-6-(2,6-difluorophenyl)-5-fluoropicolinamide]: the values for the IC50 at GSK3β and at PIM2 were 0.548 µM and 27.1 nM, respectively.

With `C[C@]1(O)[C@@H](N)C[C@H](c2ccncc2NC(=O)c2ccc(F)c(-c3c(F)cccc3F)n2)OC12CC2` [Example 287, N-(4-((5R,7S,8S)-7-amino-8-hydroxy-8-methyl-4-oxaspiro[2.5]octan-5-yl)pyridin-3-yl)-6-(2,6-difluorophenyl)-5-fluoropicolinamide], the IC50 at GSK3β came out at 1.5 µM; on PIM2 it was 388 nM.

For the compound `C[C@@]1(O)[C@H](N)C[C@@H](c2ccncc2NC(=O)c2ccc(F)c(-c3c(F)cccc3F)n2)OC12CC2` [Example 288, N-(4-((5S,7R,8R)-7-amino-8-hydroxy-8-methyl-4-oxaspiro[2.5]octan-5-yl)pyridin-3-yl)-6-(2,6-difluorophenyl)-5-fluoropicolinamide], the IC50 on GSK3β was 16.3 µM; on PIM2, 272 nM.

With `CC(C)[C@H]1O[C@@H](c2ccncc2NC(=O)c2ccnc(-c3c(F)cccc3F)n2)C[C@@H](N)[C@@H]1O` [Example 293, N-(4-((2R,4R,5S,6R)-4-amino-5-hydroxy-6-isopropyltetrahydro-2H-pyran-2-yl)pyridin-3-yl)-2-(2,6-difluorophenyl)pyrimidine-4-carboxamide], the values for the IC50 on GSK3β and on PIM2 were 0.95 µM and 154 nM, respectively.

For the compound `CC(C)[C@H]1O[C@@H](c2ccncc2NC(=O)c2ccc(F)c(-c3cnc4[nH]ccc4c3)n2)C[C@@H](N)[C@@H]1O` [Example 295, N-(4-((2R,4R,5S,6R)-4-amino-5-hydroxy-6-isopropyltetrahydro-2H-pyran-2-yl)pyridin-3-yl)-5-fluoro-6-(1H-pyrrolo[2,3-b]pyridin-5-yl)picolinamide], the IC50 on GSK3β was determined as 4.3 µM; at PIM2, 345 nM.

With `CC1(C)C[C@@H](N)C[C@H](c2ccncc2NC(=O)c2ccc(F)c(-c3c(F)cccc3F)n2)O1` [Example 298, N-(4-((2R,4S)-4-amino-6,6-dimethyltetrahydro-2H-pyran-2-yl)pyridin-3-yl)-6-(2,6-difluorophenyl)-5-fluoropicolinamide], the IC50 was found to be 4.94 µM on GSK3β and 234 nM on PIM2.

For the compound `CC(C)[C@H]1C[C@@H](N)C[C@@H](c2ccncc2NC(=O)c2ccc(F)c(-c3c(F)cccc3F)n2)O1` [Example 301, N-(4-((2S,4R,6R)-4-amino-6-isopropyltetrahydro-2H-pyran-2-yl)pyridin-3-yl)-6-(2,6-difluorophenyl)-5-fluoropicolinamide], the IC50 is 20.7 µM at GSK3β and 159 nM at PIM2.

On to `CC(C)[C@H]1C[C@@H](N)C[C@@H](c2ccncc2NC(=O)c2ccc(F)c(-c3c(F)cc(S(C)(=O)=O)cc3F)n2)O1` [Example 303, N-(4-((2S,4R,6R)-4-amino-6-isopropyltetrahydro-2H-pyran-2-yl)pyridin-3-yl)-6-(2,6-difluoro-4-(methylsulfonyl)phenyl)-5-fluoropicolinamide], for which the IC50 at GSK3β turned out to be 10.3 µM; on PIM2 it was 1250 nM.

As to `CC(C)[C@H]1O[C@@H](c2ccncc2NC(=O)c2ccnc(-n3ccc(=O)cc3)n2)C[C@@H](N)[C@@H]1O` [Example 304, N-(4-((2R,4R,5S,6R)-4-amino-5-hydroxy-6-isopropyltetrahydro-2H-pyran-2-yl)pyridin-3-yl)-2-(4-oxopyridin-1(4H)-yl)pyrimidine-4-carboxamide], the IC50 was more than 25 µM at GSK3β and more than 25000 nM at PIM2.

On to `CC(C)[C@H]1O[C@@H](c2ccncc2NC(=O)c2ccc(F)c(-c3ccc(S(C)(=O)=O)cc3)n2)C[C@@H](N)[C@@H]1O` [Example 306, N-(4-((2R,4R,5S,6R)-4-amino-5-hydroxy-6-isopropyltetrahydro-2H-pyran-2-yl)pyridin-3-yl)-5-fluoro-6-(4-(methylsulfonyl)phenyl)picolinamide], for which the IC50 amounted to 2.82 µM at GSK3β and 1660 nM on PIM2.

`CC(C)C(=O)Nc1ccc(F)c(-c2nc(C(=O)Nc3cnccc3[C@H]3C[C@@H](N)[C@H](O)[C@@H](C(C)C)O3)ccc2F)c1F` [Example 308, N-(4-((2R,4R,5S,6R)-4-amino-5-hydroxy-6-isopropyltetrahydro-2H-pyran-2-yl)pyridin-3-yl)-6-(2,6-difluoro-3-isobutyramidophenyl)-5-fluoropicolinamide]: the values for the IC50 on GSK3β and on PIM2 were 18.3 µM and 68.5 nM, respectively.

With `CC(C)[C@H]1O[C@@H](c2ccncc2NC(=O)c2ccc(F)c(-c3ccccc3)n2)C[C@@H](N)[C@@H]1O` [Example 309, N-(4-((2R,4R,5S,6R)-4-amino-5-hydroxy-6-isopropyltetrahydro-2H-pyran-2-yl)pyridin-3-yl)-5-fluoro-6-phenylpicolinamide], the results for the IC50 at GSK3β and on PIM2 were 8.12 µM and 131 nM, respectively.

Turning to `CC(C)[C@H]1O[C@@H](c2ccncc2NC(=O)c2ccnc(-n3c(F)cccc3=O)n2)C[C@@H](N)[C@@H]1O` [Example 310, N-(4-((2R,4R,5S,6R)-4-amino-5-hydroxy-6-isopropyltetrahydro-2H-pyran-2-yl)pyridin-3-yl)-2-(6-fluoro-2-oxopyridin-1(2H)-yl)pyrimidine-4-carboxamide], the IC50 amounted to 3.31 µM on GSK3β and 6940 nM at PIM2.

Regarding `C[C@H]1O[C@@H](c2ccncc2NC(=O)c2ccc(F)c(-c3ccc(N)nc3F)n2)C[C@@H](N)[C@]1(C)O` [Example 311, 6′-amino-N-(4-((2R,4R,5S,6R)-4-amino-5-hydroxy-5,6-dimethyltetrahydro-2H-pyran-2-yl)pyridin-3-yl)-2′,3-difluoro-2,3′-bipyridine-6-carboxamide], the values for the IC50 at GSK3β and at PIM2 were 2.3 µM and 84.6 nM, respectively.

On to `CC(C)[C@H]1O[C@@H](c2ccncc2NC(=O)c2ccc(F)c(-c3cccc(S(C)(=O)=O)c3)n2)C[C@@H](N)[C@@H]1O` [Example 312, N-(4-((2R,4R,5S,6R)-4-amino-5-hydroxy-6-isopropyltetrahydro-2H-pyran-2-yl)pyridin-3-yl)-5-fluoro-6-(3-(methylsulfonyl)phenyl)picolinamide], for which the IC50 at GSK3β was more than 25 µM; at PIM2, 2480 nM.
